Results as given in PubChem BioAssay (NCI).
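These data come from cells grown in 96-well plates and exposed to compound for 48 hours at five concentrations. GI50 = concentration required for 50% inhibition of growth. TGI marks complete inhibition of growth.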

Tests used:
Test in all cases: NCI tumour cell line growth inhibition, 48 h
HCT-15 colon = test system: HCT-15 colon
MDA-MB-231 breast = test system: MDA-MB-231 breast
SNB-19 CNS = test system: SNB-19 CNS
SK-MEL-28 melanoma = test system: SK-MEL-28 melanoma
HT29 colon = test system: HT29 colon
M14 melanoma = test system: M14 melanoma
NCI-H226 lung = test system: NCI-H226 lung
OVCAR-4 ovarian = test system: OVCAR-4 ovarian
LOX IMVI melanoma = test system: LOX IMVI melanoma
NCI-H23 lung = test system: NCI-H23 lung

## COc1ccc2c(-c3csc(-c4c[nH]c5ccccc45)n3)c[nH]c2c1
HCT-15 colon
  TGI: > 100 µM
MDA-MB-231 breast
  TGI: > 37.6 µM
SNB-19 CNS
  TGI: > 100 µM
SK-MEL-28 melanoma
  TGI: > 81.6 µM
HT29 colon
  TGI: 7.32 µM
M14 melanoma
  TGI: 53.1 µM
NCI-H226 lung
  TGI: 45.4 µM
OVCAR-4 ovarian
  TGI: 69.8 µM
LOX IMVI melanoma
  TGI: > 31.9 µM
NCI-H23 lung
  TGI: > 66.5 µM

## O=c1cc(-c2ccccc2)[nH]c2c(F)ccc(F)c12
HCT-15 colon
  TGI: > 100 µM
SK-MEL-28 melanoma
  TGI: > 100 µM
HT29 colon
  TGI: > 100 µM
M14 melanoma
  TGI: > 100 µM
NCI-H226 lung
  TGI: > 100 µM
OVCAR-4 ovarian
  TGI: > 100 µM
LOX IMVI melanoma
  TGI: > 100 µM
NCI-H23 lung
  TGI: > 100 µM

## COc1ccc(C2=C(N)c3cc(OC)ccc3C2=O)cc1
HCT-15 colon
  TGI: > 100 µM
MDA-MB-231 breast
  TGI: > 100 µM
SNB-19 CNS
  TGI: > 100 µM
SK-MEL-28 melanoma
  TGI: > 100 µM
HT29 colon
  TGI: > 100 µM
M14 melanoma
  TGI: > 100 µM
NCI-H226 lung
  TGI: > 100 µM
OVCAR-4 ovarian
  TGI: > 100 µM
LOX IMVI melanoma
  TGI: > 100 µM
NCI-H23 lung
  TGI: > 100 µM

## C=C1CC2C[C@H](OS(=O)(=O)c3ccc(C)cc3)C(C1)N2C (stereo not given in full)
HCT-15 colon
  TGI: > 100 µM
MDA-MB-231 breast
  TGI: > 100 µM
SNB-19 CNS
  TGI: > 100 µM
SK-MEL-28 melanoma
  TGI: > 100 µM
HT29 colon
  TGI: > 100 µM
M14 melanoma
  TGI: > 100 µM
NCI-H226 lung
  TGI: > 100 µM
OVCAR-4 ovarian
  TGI: > 100 µM
LOX IMVI melanoma
  TGI: > 100 µM
NCI-H23 lung
  TGI: > 100 µM

## Cc1cc(S(=O)(=O)Nc2n[nH]c(N)n2)c(S)cc1Cl
HCT-15 colon
  TGI: > 10 µM
MDA-MB-231 breast
  TGI: > 10 µM
SNB-19 CNS
  TGI: > 10 µM
SK-MEL-28 melanoma
  TGI: > 10 µM
HT29 colon
  TGI: > 10 µM
M14 melanoma
  TGI: > 10 µM
NCI-H226 lung
  TGI: > 10 µM
OVCAR-4 ovarian
  TGI: > 10 µM
LOX IMVI melanoma
  TGI: > 10 µM
NCI-H23 lung
  TGI: > 10 µM

## CO/C=C(/C(=O)OC)c1ccccc1[C@H]1C[C@@H]1c1ccccc1
HCT-15 colon
  TGI: 86.8 µM
MDA-MB-231 breast
  TGI: > 100 µM
SNB-19 CNS
  TGI: > 100 µM
SK-MEL-28 melanoma
  TGI: 64.2 µM
HT29 colon
  TGI: 56.5 µM
M14 melanoma
  TGI: 68.8 µM
NCI-H226 lung
  TGI: 74.4 µM
OVCAR-4 ovarian
  TGI: 62.3 µM
NCI-H23 lung
  TGI: > 100 µM

## Cc1cccc(-c2cc(=O)c3cc(C)cnc3[nH]2)c1
HCT-15 colon
  TGI: > 26.8 µM
SK-MEL-28 melanoma
  TGI: > 100 µM
M14 melanoma
  TGI: > 100 µM
NCI-H226 lung
  TGI: 2.79 µM
OVCAR-4 ovarian
  TGI: > 100 µM
LOX IMVI melanoma
  TGI: > 100 µM
NCI-H23 lung
  TGI: > 35.9 µM

## CC1CN=C(N(C(=O)Nc2ccccc2)C2CCCCC2)S1 (stereo not given)
HCT-15 colon
  TGI: 28.9 µM
MDA-MB-231 breast
  TGI: 29.9 µM
SNB-19 CNS
  TGI: 81.8 µM
SK-MEL-28 melanoma
  TGI: 28.2 µM
HT29 colon
  TGI: 32.9 µM
OVCAR-4 ovarian
  TGI: 30.2 µM
LOX IMVI melanoma
  TGI: 27.1 µM
NCI-H23 lung
  TGI: 33.8 µM

## NC(=O)c1nnc2c(F)cccc2c1N
HCT-15 colon
  TGI: > 100 µM
MDA-MB-231 breast
  TGI: > 100 µM
SNB-19 CNS
  TGI: > 100 µM
HT29 colon
  TGI: > 100 µM
M14 melanoma
  TGI: > 100 µM
NCI-H226 lung
  TGI: > 100 µM
OVCAR-4 ovarian
  TGI: > 100 µM
LOX IMVI melanoma
  TGI: > 100 µM
NCI-H23 lung
  TGI: > 100 µM

## CC1C/C(=C\c2ccc(O)c(O)c2)C(=O)/C(=C/c2ccc(O)c(O)c2)C1 (stereo not given)
HCT-15 colon
  TGI: 25.5 µM
MDA-MB-231 breast
  TGI: 43.4 µM
SNB-19 CNS
  TGI: 22.5 µM
SK-MEL-28 melanoma
  TGI: 20.3 µM
HT29 colon
  TGI: 34.2 µM
NCI-H226 lung
  TGI: 9.64 µM
OVCAR-4 ovarian
  TGI: 34.1 µM
LOX IMVI melanoma
  TGI: 23.4 µM
NCI-H23 lung
  TGI: 12.9 µM

## Cc1cccc2c1C(=O)/C(=C/c1ccccc1C(=O)O)C2
HCT-15 colon
  TGI: > 100 µM
SNB-19 CNS
  TGI: > 100 µM
SK-MEL-28 melanoma
  TGI: > 100 µM
HT29 colon
  TGI: > 100 µM
M14 melanoma
  TGI: > 100 µM
NCI-H226 lung
  TGI: > 100 µM
OVCAR-4 ovarian
  TGI: > 100 µM
LOX IMVI melanoma
  TGI: > 100 µM
NCI-H23 lung
  TGI: > 100 µM

## CN(C)CC(C)(C)C(=O)/C=C/c1ccccc1
HCT-15 colon
  TGI: 26.9 µM
SNB-19 CNS
  TGI: 31.4 µM
SK-MEL-28 melanoma
  TGI: 31 µM
HT29 colon
  TGI: 33.9 µM
M14 melanoma
  TGI: 26.7 µM
NCI-H226 lung
  TGI: 29.3 µM
OVCAR-4 ovarian
  TGI: 31.6 µM
LOX IMVI melanoma
  TGI: 25.6 µM
NCI-H23 lung
  TGI: 45.5 µM

## H-KIFKKFKTIIKKVWRIFGRF-NH2
SK-MEL-28 melanoma
  GI50: 2.21 µM
  TGI: 5.02 µM
HT29 colon
  GI50: 2.92 µM
  TGI: > 100 µM
M14 melanoma
  GI50: 2.37 µM
  TGI: > 100 µM
OVCAR-4 ovarian
  GI50: 2.13 µM
  TGI: 5.4 µM
LOX IMVI melanoma
  GI50: 2.98 µM
  TGI: > 100 µM
NCI-H23 lung
  GI50: 2.44 µM
  TGI: 7.51 µM

## C/C(=N/NC(=O)c1ccccc1Nc1ccccc1C(=O)N/N=C(\C)c1ccc(C)cc1)c1ccc(C)cc1
HCT-15 colon
  TGI: > 100 µM
MDA-MB-231 breast
  TGI: > 100 µM
SNB-19 CNS
  TGI: > 100 µM
SK-MEL-28 melanoma
  TGI: > 100 µM
HT29 colon
  TGI: > 100 µM
M14 melanoma
  TGI: > 100 µM
NCI-H226 lung
  TGI: > 100 µM
OVCAR-4 ovarian
  TGI: > 100 µM
NCI-H23 lung
  TGI: > 100 µM

## COc1ccc(C2CCc3c(cnc4nc(N)nc(N)c34)C2)cc1 (stereo not given)
HCT-15 colon
  TGI: > 100 µM
MDA-MB-231 breast
  TGI: > 100 µM
SNB-19 CNS
  TGI: > 100 µM
SK-MEL-28 melanoma
  TGI: > 100 µM
HT29 colon
  TGI: > 100 µM
M14 melanoma
  TGI: > 100 µM
NCI-H226 lung
  TGI: > 100 µM
OVCAR-4 ovarian
  TGI: > 100 µM
LOX IMVI melanoma
  TGI: > 100 µM

## COc1nc2ncc([C@@H](O)[C@H](O)CO)nc2c(=O)[nH]1
HCT-15 colon
  TGI: > 100 µM
MDA-MB-231 breast
  TGI: > 100 µM
SNB-19 CNS
  TGI: > 100 µM
SK-MEL-28 melanoma
  TGI: > 100 µM
HT29 colon
  TGI: > 100 µM
M14 melanoma
  TGI: > 100 µM
NCI-H226 lung
  TGI: > 100 µM
OVCAR-4 ovarian
  TGI: > 100 µM
LOX IMVI melanoma
  TGI: > 100 µM

## CC1CC2OC(=N)C1(C#N)C2(C#N)C#N (stereo not given)
HCT-15 colon
  TGI: 30.6 µM
MDA-MB-231 breast
  TGI: 38.4 µM
SNB-19 CNS
  TGI: > 100 µM
SK-MEL-28 melanoma
  TGI: > 100 µM
HT29 colon
  TGI: 47.7 µM
M14 melanoma
  TGI: > 100 µM
NCI-H226 lung
  TGI: > 100 µM
LOX IMVI melanoma
  TGI: 31 µM
NCI-H23 lung
  TGI: 63.7 µM

## Nc1nn2cc(-c3ccccc3)[n+](CC(=O)c3ccccc3)c2s1
HCT-15 colon
  TGI: > 100 µM
MDA-MB-231 breast
  TGI: > 100 µM
SNB-19 CNS
  TGI: 52.9 µM
HT29 colon
  TGI: > 100 µM
M14 melanoma
  TGI: 40.6 µM
NCI-H226 lung
  TGI: > 100 µM
LOX IMVI melanoma
  TGI: 35.4 µM
NCI-H23 lung
  TGI: 51.6 µM

## COC1OC(=O)C(OC)C(OC)C1OC (stereo not given)
HCT-15 colon
  TGI: > 100 µM
MDA-MB-231 breast
  TGI: > 100 µM
SNB-19 CNS
  TGI: > 100 µM
SK-MEL-28 melanoma
  TGI: > 100 µM
HT29 colon
  TGI: > 100 µM
M14 melanoma
  TGI: > 100 µM
NCI-H226 lung
  TGI: > 100 µM
OVCAR-4 ovarian
  TGI: > 100 µM
LOX IMVI melanoma
  TGI: > 100 µM

## Cn1c(-c2cccs2)cc(-c2ccsc2)c1-c1ccsc1
HCT-15 colon
  TGI: > 100 µM
MDA-MB-231 breast
  TGI: > 100 µM
SNB-19 CNS
  TGI: > 100 µM
SK-MEL-28 melanoma
  TGI: > 100 µM
HT29 colon
  TGI: > 100 µM
M14 melanoma
  TGI: > 100 µM
NCI-H226 lung
  TGI: > 100 µM
OVCAR-4 ovarian
  TGI: > 100 µM
NCI-H23 lung
  TGI: > 100 µM

## O=C1CSC2=NC3=C(COC/C3=C\c3ccc(F)cc3)C(c3ccc(F)cc3)N12 (stereo not given)
HCT-15 colon
  TGI: > 100 µM
MDA-MB-231 breast
  TGI: > 100 µM
SNB-19 CNS
  TGI: > 100 µM
M14 melanoma
  TGI: > 100 µM
NCI-H226 lung
  TGI: > 100 µM
OVCAR-4 ovarian
  TGI: > 100 µM
LOX IMVI melanoma
  TGI: > 100 µM
NCI-H23 lung
  TGI: > 100 µM
